In ChEMBL document CHEMBL5725708, “Amide derivatives and pharmaceutically acceptable salts thereof, preparation method thereof and medicinal application thereof” (2018):

Target: T1, Prostaglandin E synthase (Homo sapiens, UniProt O14684)
T1 sequence (O14684 whole entry): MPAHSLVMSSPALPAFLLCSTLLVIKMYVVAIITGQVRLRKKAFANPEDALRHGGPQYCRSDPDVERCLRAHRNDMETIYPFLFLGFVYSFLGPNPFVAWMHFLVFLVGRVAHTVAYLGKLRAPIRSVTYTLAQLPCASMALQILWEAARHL
Assay: mPGES1 enzyme assay: mPGES1 was diluted with assay buffer and added into plate at 49 μL/well supplemented with 1 μL of compound (the final concentration of each compound at seven gradient concentrations was 10000 nM, 1000 nM, 100 nM, 10 nM, 1 nM, 0.1 nM and 0.01 nM). Each well was added with 3.8 μL of 20 μg/mL PGH precooled on ice after shaking for 30 seconds and incubated for 7 minutes on ice. Then, each well was added with 53.8 μL of 6 mg/mL SnCl2 to quench the reaction. The sample was diluted with dilute buffer at 1:400. 10 μl of diluted sample, 5 μL PGE2-d2 and 5 μL anti-PGE2 Cryptate were added to a black 384-well plate, and incubated at 4° C. overnight. HTRF was determined using Flexstation, and the IC50 of the compounds was obtained by data processing software.

Work on `CCn1c(-c2ccc(F)cc2)cc2cc(NC(=O)c3cc(CNC(=O)C(C)(C)C)ccc3Br)ccc21` yielded an IC50 of 6.02 nM.
